Measurements reported in patent publication US9493451B2 (Bionomics Limited, priority 2011, dated 2016).
pIC50: −log10 of the molar value.

Biological target: T1, Kv1.3 (Homo sapiens, UniProt P22001)
T1 construct: expressed in transfected cells; host or cells: CHO (Kv1.3/CHO)
Test: Electrophysiology: planar patch-clamp of Kv1.3 currents, IC50 from steady state current amplitude
Format: cell-based
Details: Kv1.3 electrophysiology, results according to Method D1, read-out: IC50 (Kv1.3 ephys steady state)
Method: The inhibition data shown for the compounds of the list below was calculated using the steady state current amplitude at the end of the depolarising pulse in patch clamp evaluations (as described in the Biology Protocols: 1. Electrophysiology).
Kv1.x currents were measured in Kv1.3/CHO or Kv1.5/CHO cells using a planar electrode version (Nanion Technologies GMBH) of the patch-clamp technique. Whole-cell Kv1.x current transients were evoked by 500 ms depolarising voltage pulses to +40 mV from a holding potential of −80 mV applied at 10 s intervals for Kv1.5 and at 30 s intervals for Kv1.3 to allow adequate time for recovery from inactivation. Cells were continuously bathed in a buffered saline solution containing (mM): 160 NaCl, 4.5 KCl, 2 CaCl2, 1 MgCl2, 5 glucose, 10 HEPES, pH 7.4, 290-310 mOsm·Kg^−1. The internal (pipette) solution contained (mM): 10 NaCl, 70 KF, 75 KCl, 2 MgCl2, 10 HEPES, 10 EGTA, pH 7.2, 290-310 mOsm·Kg^−1. Series resistance compensation (60-80%) was applied to cells in which the peak current amplitude exceeded 2 nA.
Compound Preparation and Potency Assessment
Compounds were initially dissolved in DMSO to 10 mM. After further dilution in DMSO, compounds were finally diluted in bath solution 1/200 (to give a final DMSO concentration of 0.5%) and applied directly to the recording chamber. Compounds were added at increasing concentrations allowing ample time for steady state block to be achieved between each concentration. Each compound was tested at 5-6 different concentrations on 2-3 cells. Compound IC50 values were determined by fitting the average normalised reduction of either the current integral or the steady state current amplitude at the end of the 500 ms depolarising pulse obtained at each compound concentration to the Hill equation. The IC50 data reported herein is based on the steady state calculation.

T1 sequence (P22001 whole entry): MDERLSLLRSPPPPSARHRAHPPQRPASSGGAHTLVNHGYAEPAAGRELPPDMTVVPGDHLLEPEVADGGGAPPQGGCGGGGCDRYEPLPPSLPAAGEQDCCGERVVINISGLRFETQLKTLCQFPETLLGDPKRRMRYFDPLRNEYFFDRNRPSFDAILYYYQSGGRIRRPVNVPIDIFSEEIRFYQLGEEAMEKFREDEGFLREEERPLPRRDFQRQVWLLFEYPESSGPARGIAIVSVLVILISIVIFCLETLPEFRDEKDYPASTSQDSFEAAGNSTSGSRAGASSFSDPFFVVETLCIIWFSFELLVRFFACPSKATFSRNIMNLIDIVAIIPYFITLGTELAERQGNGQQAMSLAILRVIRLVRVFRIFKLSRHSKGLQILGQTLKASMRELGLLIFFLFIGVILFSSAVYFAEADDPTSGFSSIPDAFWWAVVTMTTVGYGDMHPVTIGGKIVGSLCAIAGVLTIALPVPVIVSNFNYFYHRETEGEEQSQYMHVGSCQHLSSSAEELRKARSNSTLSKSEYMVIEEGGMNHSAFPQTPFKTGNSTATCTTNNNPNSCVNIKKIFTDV

pIC50	SMILES
6.00 to 6.70	O=C(C1CC1c1ccc(F)cc1)N(Cc1cnc[nH]1)C(c1ccc(OC(F)F)cc1)C1CC1 (stereo not drawn) [Example 183]
6.00 to 6.70	O=C(C1CC1c1ccc(F)cc1)N(Cc1ccc(F)cn1)C(c1ccc(F)cc1)C1CNC1 (stereo not drawn) [Example 158]
6.70 to 7.30	CC(C)(C(=O)N(Cc1cccnn1)C(c1ccc(OC(F)F)cc1)C1CC1)S(=O)(=O)c1ccc(F)cc1 (stereo not drawn) [Example 308]
6.00 to 6.70	CCC(c1ccc(S(=O)(=O)C(C)C)cc1)N(Cc1cccnn1)C(=O)C1CC1c1ccc(F)cc1 (stereo not drawn) [Example 130]
6.70 to 7.30	N#Cc1cccc(C(C2CC2)N(Cc2ccc(C(F)(F)F)nc2)C(=O)CS(=O)(=O)c2ccc(F)cc2)c1 (stereo not drawn) [Example 332]
6.70 to 7.30	O=C(CS(=O)(=O)c1ccccc1F)N(Cc1ccc(C(F)(F)F)nc1)C(c1ccc(OC(F)F)cc1)C1CC1 (stereo not drawn) [Example 300]
6.70 to 7.30	CCC(c1ccc(S(=O)(=O)CC)cc1)N(Cc1ccc(F)cn1)C(=O)C1CC1c1ccc(F)cc1 (stereo not drawn) [Example 117]
6.00 to 6.70	CC(C)S(=O)(=O)c1ccc(C(C2CC2)N(Cc2ncccc2F)C(=O)C2CC2c2ccc(F)cc2)cc1 (stereo not drawn) [Example 235]
6.70 to 7.30	O=C(CS(=O)(=O)c1cccc(C(F)(F)F)c1)N(Cc1ccccn1)C(c1ccc(Cl)cc1)C1CC1 (stereo not drawn) [Example 294]
> 7.30	O=C([C@H]1C[C@@H]1c1ccc(F)cc1)N(Cc1ccccn1)[C@@H](c1ccc(Cl)cc1)C1CC1 (stereo in doubt) [Example 14, N-[(4-chlorophenyl)(cyclopropyl)methyl]-2-(4-fluorophenyl)-N-(pyridin-2-ylmethyl)cyclopropanecarboxamide]
6.70 to 7.30	CC(C)C(c1ccc(OC(F)F)cc1)N(Cc1ccc(F)cn1)C(=O)C1CC1c1ccc(F)cc1F (stereo not drawn) [Example 115]
> 7.30	O=C(CC1(c2ccc(F)cc2)CC1)N(Cc1ccccn1)[C@@H](c1ccc(Cl)cc1)C1CC1 (single isomer, unassigned) [Example 95, N-[(4-chlorophenyl)(cyclopropyl)methyl]-2-[1-(4-fluorophenyl)cyclopropyl]-N-(pyridin-2-ylmethyl)acetamide]
6.00 to 6.70	CCc1noc(C(C)N(Cc2ccccn2)C(=O)CC(C)c2ccc(F)cc2)n1 (stereo not drawn) [Example 87]
6.70 to 7.30	C[C@@H](CC(=O)N(Cc1ccccn1)C1(c2cccc(Br)c2)CC1)c1ccc(F)cc1 (single isomer, unassigned) [Example 96]
6.70 to 7.30	CC(C)S(=O)(=O)c1cccc(C(C2CC2)N(Cc2ccc(F)cn2)C(=O)C2CC2c2ccc(F)cc2)c1 (stereo not drawn) [Example 242]
6.00 to 6.70	O=C(CS(=O)(=O)c1ccc(F)cc1)N(Cc1ccccn1)C(c1ccc(OC(F)F)cc1)C1CC1 (stereo not drawn) [Example 314]
6.00 to 6.70	CC(C)S(=O)(=O)c1cccc(C(C2CC2)N(Cc2ncccc2F)C(=O)C2CC2c2ccc(F)cc2)c1 (stereo not drawn) [Example 246]
6.70 to 7.30	CCS(=O)(=O)c1cccc(C(C2CC2)N(Cc2cncc(F)c2)C(=O)C2CC2c2ccc(F)cc2)c1 (stereo not drawn) [Example 214]
6.70 to 7.30	O=C(CS(=O)(=O)c1ccc(F)cc1)N(Cc1ccc(C(F)(F)F)nc1)C(c1ccc(OC(F)F)cc1)C1CC1 (stereo not drawn) [Example 313]

pIC50	SMILES
6.70 to 7.30	O=C(C1CC1c1ccc(F)cc1)N(Cc1cccnn1)C(c1ccc(F)cc1)C1CCOC1 (stereo not drawn) [Example 173]
6.70 to 7.30	CSc1cccc(CN(C(=O)C2CC2c2ccc(F)cc2)C(c2ccc(Cl)cc2)C2CC2)n1 (stereo not drawn) [Example 254]
6.70 to 7.30	CCS(=O)(=O)c1ccc(C(C2CC2)N(Cc2ccc(F)cn2)C(=O)C2CC2c2ccc(F)cc2F)cc1 (stereo not drawn) [Example 229]
6.70 to 7.30	O=C(CS(=O)(=O)c1cccc(C(F)(F)F)c1)N(Cc1ccccn1)C(c1ccc(Cl)cc1)C1CC1 (stereo not drawn) [Example 293]
6.00 to 6.70	CCC(c1ccc(S(C)(=O)=O)cc1)N(Cc1ccc(C(F)(F)F)nc1)C(=O)C1CC1c1ccc(F)cc1 (stereo not drawn) [Example 120]
6.70 to 7.30	CCS(=O)(=O)c1cccc(C(C2CC2)N(Cc2ccc(F)cn2)C(=O)C2CC2c2ccc(F)c(F)c2)c1 (stereo not drawn) [Example 197]
6.00 to 6.70	O=C(CS(=O)(=O)c1ccccc1)N(Cc1cccnn1)C(c1ccc(OC(F)F)cc1)C1CC1 (stereo not drawn) [Example 306]
6.00 to 6.70	O=C(C1CC1c1ccc(F)cc1)N(Cc1ncccc1F)C(c1ccc(F)cc1)C1CCOC1 (stereo not drawn) [Example 171]
6.00 to 6.70	CN1CCC(C(c2ccc(OC(F)F)cc2)N(Cc2ccc(F)cn2)C(=O)C2CC2c2ccc(F)cc2)CC1 (stereo not drawn) [Example 142]
6.00 to 6.70	CCS(=O)(=O)c1cccc(C(C2CC2)N(Cc2ccccn2)C(=O)C(C)(C)S(=O)(=O)c2ccccc2)c1 (stereo not drawn) [Example 328]
6.00 to 6.70	O=C(CS(=O)(=O)c1cccc(C(F)(F)F)c1)N(Cc1cccnn1)C(c1ccc(OC(F)F)cc1)C1CC1 (stereo not drawn) [Example 310]
6.00 to 6.70	CN1CC(C(c2ccc(OC(F)F)cc2)N(Cc2ccc(C(F)(F)F)cn2)C(=O)C2CC2c2ccc(F)cc2)C1 (stereo not drawn) [Example 160]
6.70 to 7.30	N#Cc1cccc(C(C2CC2)N(Cc2ncccc2F)C(=O)C2CC2c2ccc(F)cc2)c1 (stereo not drawn) [Example 252]
6.70 to 7.30	CCS(=O)(=O)c1cccc(C(C2CC2)N(CC(F)(F)c2ccccn2)C(=O)C2CC2c2ccc(F)cc2)c1 (stereo not drawn) [Example 191]
6.00 to 6.70	Cn1cncc1CN(C(=O)C1CC1c1ccc(F)cc1)C(c1ccc(OC(F)F)cc1)C1CC1 (stereo not drawn) [Example 189]
5.70 to 6.00	CCS(=O)(=O)c1cccc(C(C2CC2)N(Cc2ncccc2F)C(=O)CS(=O)(=O)c2ccccc2)c1 (stereo not drawn) [Example 327]
6.70 to 7.30	CC(C)C(c1ccc(OC(F)F)cc1)N(Cc1ccc(F)cn1)C(=O)C1CC1c1ccc(F)cc1 (stereo not drawn) [Example 111]
6.00 to 6.70	CCS(=O)(=O)c1cccc(C(C2CC2)N(Cc2ccncn2)C(=O)C2CC2c2ccc(F)cc2)c1 (stereo not drawn) [Example 192]
6.70 to 7.30	CCC(c1ccc(S(C)(=O)=O)cc1)N(Cc1ccc(C(F)(F)F)nc1)C(=O)C1CC1c1ccc(F)cc1F (stereo not drawn) [Example 127]

pIC50	SMILES
6.00 to 6.70	Cn1ccnc1CN(C(=O)C1CC1c1ccc(F)cc1)C(c1ccc(OC(F)F)cc1)C1CC1 (stereo not drawn) [Example 187]
6.70 to 7.30	O=C(C1C[C@H]1c1ccc(F)cc1)N(Cc1ccccn1)[C@@H](c1ccc(Cl)cc1)C1CC1 (stereo in doubt) [Example 13, N-[(4-chlorophenyl)(cyclopropyl)methyl]-2-(4-fluorophenyl)-N-(pyridin-2-ylmethyl)cyclopropanecarboxamide]
6.70 to 7.30	CCC(c1ccc(S(C)(=O)=O)cc1)N(Cc1ccc(C(F)(F)F)nc1)C(=O)C1CC1c1ccc(F)cc1F (stereo not drawn) [Example 128]
> 7.30	CCS(=O)(=O)c1cccc(CN(C(=O)C2CC2c2ccc(F)cc2)C(c2ccc(Cl)cc2)C2CC2)n1 (stereo not drawn) [Example 253]
6.70 to 7.30	O=C(CS(=O)(=O)c1cccc(C(F)(F)F)c1)N(Cc1cccnn1)C(c1ccc(OC(F)F)cc1)C1CC1 (stereo not drawn) [Example 307]
6.00 to 6.70	CC(C)C(c1ccc(F)cc1)N(CCC1CCNCC1)C(=O)CS(=O)(=O)c1ccc(F)cc1 (stereo not drawn) [Example 284]
> 7.30	Cc1cccc(CN(C(=O)CS(=O)(=O)c2ccc(F)cc2)C(c2ccc(OC(F)F)cc2)C2CC2)n1 (stereo not drawn) [Example 320]
6.70 to 7.30	O=C(C1CC1c1ccc(F)c(F)c1)N(Cc1cccnn1)C(c1ccc(OC(F)F)cc1)C1CC1 (stereo not drawn) [Example 180]
6.70 to 7.30	O=C(CS(=O)(=O)c1ccccc1)N(Cc1ccc(C(F)(F)F)nc1)C(c1ccc(OC(F)F)cc1)C1CC1 (stereo not drawn) [Example 301]
6.70 to 7.30	O=C(CS(=O)(=O)c1ccccc1F)N(Cc1ccc(C(F)(F)F)nc1)C(c1ccc(OC(F)F)cc1)C1CC1 (stereo not drawn) [Example 299]
6.00 to 6.70	Cc1ccc(CN(C(=O)CS(=O)(=O)c2ccccc2)C(c2ccc(OC(F)F)cc2)C2CC2)cn1 (stereo not drawn) [Example 323]
6.00 to 6.70	CN1CC(C(c2ccc(OC(F)(F)F)cc2)N(Cc2cncc(F)c2)C(=O)C2CC2c2ccc(F)cc2)C1 (stereo not drawn) [Example 162]
6.00 to 6.70	CN1CCC(C(c2cccc(C(F)(F)F)c2)N(Cc2ccc(F)cn2)C(=O)C2CC2c2ccc(F)cc2)CC1 (stereo not drawn) [Example 146]
6.70 to 7.30	CC(C)(C(=O)N(Cc1ccccn1)C(c1ccc(OC(F)F)cc1)C1CC1)S(=O)(=O)c1ccc(F)cc1 (stereo not drawn) [Example 319]
6.70 to 7.30	CCS(=O)(=O)c1ccc(C(C2CC2)N(Cc2ccc(F)cn2)C(=O)CC(C)c2ccccc2C(F)(F)F)cc1 (stereo not drawn) [Example 269]
6.00 to 6.70	CCS(=O)(=O)c1cccc(C(C2CC2)N(Cc2cccnn2)C(=O)C2CC2c2cccc(C(F)(F)F)c2)c1 (stereo not drawn) [Example 225]
6.00 to 6.70	CC(C)(c1ccccc1)N(Cc1ccccn1)C(=O)CS(=O)(=O)c1ccc(F)cc1 [Example 101, 2-(4-Fluorophenylsulfonyl)-N-(2-phenylpropan-2-yl)-N-(pyridine-2-ylmethyl)acetamide]
6.70 to 7.30	CC(C)S(=O)(=O)c1cccc(C(C2CC2)N(Cc2ccc(F)cn2)C(=O)C2CC2c2ccc(F)cc2)c1 (stereo not drawn) [Example 243]
> 7.30	CC(CC(=O)N(Cc1cccnn1)C(c1ccc(OC(F)F)cc1)C1CC1)c1ccc(F)cc1 (stereo not drawn) [Example 262]
